# Measurements reported in US6734175B2, “Treatments for obesity and methods for identifiying compounds useful for treating obesity” (Pfizer Inc., priority 2000, dated 2004).
# Experiments:
# melanocortin-4 receptors = target: T1, melanocortin-4 receptors (Homo sapiens, UniProt P32245); assay: [125I]AGRP competition binding assay; settings: particularly melanocortin-4 receptors; qualitative statement
# T1 construct: host or cells: membranes from unnamed cells expressing the receptor
# Description: (§1) The first radioligand binding assay is an [^125I]AGRP competition binding assay. Compounds that attenuate binding of [^125I]AGRP or AGRP would be detected in this assay. It is noted that compounds can attenuate the binding of AGRP to melanocortin 3 and/or 4 receptors by binding to melanocortin 3 and/or 4 receptors or by binding to AGRP itself. The second radioligand binding assay is an assay using radiolabeled melanocortin ligands, for example, [^125I]norleucine D-phenylalanine melanocyte stimulating hormone ([^125I]NDP-MSH). Membranes prepared from cells expressing either melanocortin 3 or 4 receptors are used in the radioligand binding assays. The preparation and use of [^125I]AGRP and [^125I]NDP-MSH is well known in the art. See, for example, Dang et al., Molecular Endocrinology, 13, 148-155 (1999). In addition, the preparation and use of membranes from cells expressing either melanocortin 3 or 4 receptors are also well known in the art. See, Bass, et al., Molecular Pharmacology, 50, 709-715 (1996).
# [^125I] AGRP Competition Binding Assay
# Specific Activity of [^125I]AGRP is 2200 Ci/mmole. The final concentration of [^125I]AGRP is 100 pM. Therefore, a 2 nM (20×) stock needs to be made in binding buffer. The concentration of [^125I]AGRP varies from 40-60 nM. [^125I]AGRP can be obtained from New England Nuclear, Boston, Mass.
# (§2) The competition assay can be run using 96 well plates. […]
# melanocortin receptors = assay: [125I]NDP-MSH competition binding assay; settings: qualitative statement
# Description: as §1
# [^125I]NDP-MSH Competition Binding Assay
# Specific Activity of [^125I]NDP-MSH is 2200 Ci/mmole. The final concentration of [^125I]NDP-MSH is 250 pM. Therefore, a 5 nM (20×) stock needs to be made in binding buffer. The concentration of [^125I]NDP-MSH varies from 40-60 nM. [^125I]NDP-MSH can be obtained from New England Nuclear, Boston, Mass.
# as §2
# T1 sequence (P32245 whole entry): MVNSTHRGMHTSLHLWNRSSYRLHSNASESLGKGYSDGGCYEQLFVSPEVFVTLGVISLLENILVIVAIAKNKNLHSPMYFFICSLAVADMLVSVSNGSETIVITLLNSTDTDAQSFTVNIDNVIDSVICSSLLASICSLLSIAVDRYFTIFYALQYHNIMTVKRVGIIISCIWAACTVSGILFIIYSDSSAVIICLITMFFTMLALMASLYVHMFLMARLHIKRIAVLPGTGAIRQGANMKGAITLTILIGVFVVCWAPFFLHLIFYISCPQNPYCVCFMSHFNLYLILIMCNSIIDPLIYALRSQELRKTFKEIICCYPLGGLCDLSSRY
smiles,measurement,setting,value
"O=[N+]([O-])c1ccc(N2C3c4ccccc4CCN3N(c3ccc([N+](=O)[O-])cc3)C3c4ccccc4CCN32)cc1 (centres unmarked) [8,16-bis-(4-nitro-phenyl)-5,6,8,8a,13,14,16,16a-octahydro-[1,2,4,5]tetrazino[6,1-a;3,4-a′]diisoquinoline]",binding of agouti-related protein to melanocortin receptors,melanocortin-4 receptors,attenuates the binding of agouti-related protein to melanocortin receptors
same,binding of α-melanocyte stimulating hormone to melanocortin receptors,melanocortin receptors,does not attenuate the binding of α-melanocyte stimulating hormone to melanocortin receptors
